# “Also recorded” adds a separate entry of the source. Marks after values point to notes of the source that are not given here.
# Key:
# [1] = Quantification of CLF in 5 human plasma samples by HPLC-MS/MS with calibration curves from SS CLF-MetOH and SS CLF-EtOH; assay type: physicochemical
# Experimental: Two working solutions of CLF were prepared. […] Five human plasma samples, spiked with CLF from both working solutions, were prepared for HPLC-MS/MS analysis. These samples (named S1, S2, S3, S4 and S5) were thawed at room temperature, extemporaneously, and 100 μl of each were transferred in appropriate tubes. The HPLC-MS/MS analysis was conducted with two calibration curves, constituted with 7 single points (non zero). The first one was prepared by serial dilutions in methanol of the working solution named SS CLF-MetOH. The second one was prepared by serial dilutions in methanol of the working solution named SS CLF-EtOH. Both working solutions were centrifuged 5 min at 3000 g before dilutions. These dilutions of CLF in methanol allowed obtaining the 10× standard solutions used for standard sample preparation. Then, calibration curves were prepared by adding 10 μl of the concentrated standard solutions to 90 μl of free-drug human plasma. The final concentrations of calibrators were of 1000, 500, 250, 100, 25, 5 and 1 ng/ml. […] The contents of CLF were determined in 5 human plasma samples provided, according to the standard curve generated from both separate working solutions. […] The content of CLF was semi-quantified using data previously obtained. The UV response at 254 nm was used for semi-quantification. […] The differences between both quantifications were also evaluated as follows: […]
# [2] = Solubility and stability of CLF in working solutions by HPLC-UV-MS (254 nm); assay type: physicochemical; details: [CLF] = 50 μg/ml
# Experimental: HPLC separation was operated with a mixture of water and acetonitrile containing 0.1% of formic acid and the reversed phase mode was selected. The injected volume of sample was 20 μl and the “full loop” mode was applied. The temperature of the analytical column was kept at 30° C. CLF, its metabolites and its IS were separated on a SunFire C18 column (5 μm, 2.1×100 mm, Waters) by elution with a linear gradient of acetonitrile in water as described in Table 62.
# The wavelength of UV detector was scaled at 254 nm. An ion trap mass spectrometer equipped with electrospray ionization (ESI) interface was operated in positive ionization mode. Detection was carried out in the following modes: • MS mode (full scan) in positive ESI for analysis of working and treatment solutions and metabolites identification, • MS/MS mode (MRM, multiple reaction monitoring) in positive ESI for qualitative analysis of CLF, its IS and its metabolites. Briefly, specific parent ions formed for CLF, its IS and its identified metabolites were selected for MS/MS fragmentations.
# Two working solutions of CLF were prepared. The first was prepared in 100% methanol for a final concentration of CLF at 109.6 μg/ml (SS CLF-MetOH) and the second was prepared in aqueous ethanol (water/ethanol/sodium hydroxide (50%), at 1000/500/30, v/v/v) for a final concentration of CLF at 71.6 μg/ml (SS CLF-EtOH).
# Working solution used during this study were centrifuged 5 min at 3000 g and then diluted in a methanol/water mixture (50/50, v/v) in order to obtain three homogeneous solutions at 50 μg/ml. Then, 200 μl were transferred into 1.2 ml HPLC glass vials and sealed. Samples were placed into the refrigerated auto-sampler and 20 μl were injected into the HPLC-UV-MS system.
# A blank sample was included (methanol/water, 50/50, v/v) to clearly distinguish interferences and impurities. The UV detection (scaled at 254 nm) allowed evaluating the solubility of CLF in both solvents by comparing CLF chromatographic peak areas. In case of signs of instability (additional chromatographic peaks), MS and then MS/MS (if needed) detections allowed to identify the impurities formed.
structure (smiles),measurement,setting,value
"CC(CCC(=O)NC(CCCCNC(=S)Nc1ccc(-c2c3ccc(=O)cc-3oc3cc(O)ccc23)c(C(=O)O)c1)C(=O)O)C1CCC2C3C(O)CC4CC(O)CCC4(C)C3CC(O)C12C [CLF, Cholyl-L-Lysyl-Fluorescein]",quantitative value of CLF prepared in methanol (100%) relative to CLF prepared in aqueous ethanol (higher by),"[1]; EtOH:H2O:NaOH (50%) 500:1000:30, both immunoassay and HPLC methodologies",approximately 40%
same,tautomerization of CLF,[1]; isomeric form of SS CLF-EtOH not detected in standard samples in human plasma,reversible and depends on the pH of the medium; also recorded: reversible and is dependent on the pH of the medium
same,"Peak Area, UV detection (254 nm)","[2]; Aqueous ammonium bicarbonate solution (0.1M), other batch of CLF",5305.5*
same,peak area of CLF in aqueous ethanol mixture relative to methanol and aqueous ammonium bicarbonate 0.1 M (fold lower),"[2]; HPLC-UV 254 nm, water/ethanol/sodium hydroxide working solution",around 10 fold
same,"Peak Area, UV detection (254 nm)",[2]; SS CLF-EtOH working solution,470.9
same,"Peak Area, UV detection (254 nm)",[2]; SS CLF-MetOH working solution,4395.1

# — patent US20150212068A1, “Cholyl-L-Lysyl-Fluorescein Assay” (Novassay SA, priority 2012, published 2015)
